Laboratory results: patent US9593109B2, “Bicyclic agonists of GPR131 and uses thereof” (CYMABAY THERAPEUTICS, INC., priority 2011, dated 2017)

Each molecule was assayed against T1, human GPR131 (Homo sapiens, UniProt Q8TDU6) (assay: Stimulation of cAMP (agonism of GPR131), FRET cAMP assay). Conditions: 0.5 h; 1.1 μM compound; compared to maximal stimulatory activity of lithocholic acid (LCA) determined at 3.3 μM; stable cell line expressing human GPR131; 37° C. for 30 minutes; read-out: Percent Activity @ 1.1 μM (of 3.3 uM LCA) (%).
T1 construct: expressed in transfected cells
T1 sequence (Q8TDU6 1-330): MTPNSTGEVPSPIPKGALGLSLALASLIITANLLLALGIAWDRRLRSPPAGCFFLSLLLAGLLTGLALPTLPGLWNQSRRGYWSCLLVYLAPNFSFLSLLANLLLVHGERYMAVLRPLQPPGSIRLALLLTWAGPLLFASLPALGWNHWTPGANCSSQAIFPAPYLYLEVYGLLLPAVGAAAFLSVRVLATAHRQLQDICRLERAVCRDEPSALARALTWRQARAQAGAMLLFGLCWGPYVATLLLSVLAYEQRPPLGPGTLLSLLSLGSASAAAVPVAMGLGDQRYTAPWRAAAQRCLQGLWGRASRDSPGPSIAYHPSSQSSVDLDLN
Type: cell-based
Procedure: This assay was developed using a stable cell line expressing human GPR131.
To measure cAMP activity in response to GPR131 agonists, GPR131 cells suspended in DMEM/F12 medium with 1 mM IBMX were seeded in 384 well plates at 5000 cells per well. After incubating with test compounds at 37° C. for 30 minutes cAMP was measured using a fluorescene resonance energy transfer cAMP kit from Cis Bio (Bedford, Mass.) according to the manufacturer's instructions. Briefly, cells were lysed, and cAMP levels determined by competitive immunoassay using D2 labeled cAMP, and europium cryptate tagged anti cAMP antibody. Decreases in the FRET signal (fluorescence ratio (665 nm/620 […]) correspond to increases in intracellular cAMP levels.
Activities of test compounds in Table 1 below are expressed as percent activity at 1.1 μM compound compared to the maximal stimulatory activity of lithocholic acid (LCA) (determined at 3.3 μM LCA).

Structure (SMILES)	activation at 1.1 µM [%]
Clc1ccc(-n2nnnc2-c2c(-c3ccccc3Cl)nc3ccccn23)cc1 [Compound 500, 2-(2-Chlorophenyl)-3-(1-(4-chlorophenyl)-1H-tetrazol-5-yl)imidazo[1,2-a]pyridine]	97.4
Clc1ccc(-n2cnnc2-c2c(-c3ccccc3Cl)nc3ccccn23)cc1 [Compound 501, 2-(2-Chlorophenyl)-3-(4-(4-chlorophenyl)-4H-1,2,4-triazol-3-yl)imidazo[1,2-a]pyridine]	99.4
Clc1ccc(-n2ncnc2-c2c(-c3ccccc3Cl)nc3ccccn23)cc1 [Compound 503, 2-(2-Chlorophenyl)-3-(1-(4-chlorophenyl)-1H-1,2,4-triazol-5-yl)imidazo[1,2-a]pyridine]	97.4
Cc1nc(-c2c(-c3cc(Cl)ccc3Cl)nc3ccccn23)n(-c2ccc(Cl)cc2)n1 [Compound 504, 3-(1-(4-Chlorophenyl)-3-methyl-1H-1,2,4-triazol-5-yl)-2-(2,5-dichlorophenyl)imidazo[1,2-a]pyridine]	97.4
Cc1nnc(-c2c(-c3cc(Cl)ccc3Cl)nc3ccccn23)n1-c1ccc(Cl)cc1 [Compound 505, 3-(4-(4-Chlorophenyl)-5-methyl-4H-1,2,4-triazol-3-yl)-2-(2,5-dichlorophenyl)imidazo[1,2-a]pyridine]	99.1
Clc1ccc(-n2ccnc2-c2c(-c3cc(Cl)ccc3Cl)nc3ccccn23)cc1 [Compound 506, 3-(1-(4-Chlorophenyl)-1H-imidazol-2-yl)-2-(2,5-dichlorophenyl)imidazo[1,2-a]pyridine]	99.4
Clc1ccc(-n2cncc2-c2c(-c3cc(Cl)ccc3Cl)nc3ccccn23)cc1 [Compound 507, 3-(1-(4-Chlorophenyl)-1H-imidazol-5-yl)-2-(2,5-dichlorophenyl)imidazo[1,2-a]pyridine]	100
CN(C)c1ccc(-n2cnnc2-c2c(-c3cc(Cl)ccc3Cl)nc3ccccn23)cc1 [Compound 510, 4-(3-(2-(2,5-Dichlorophenyl)imidazo[1,2-a]pyridin-3-yl)-4H-1,2,4-triazol-4-yl)-N,N-dimethylaniline]	100
FC(F)(F)c1ccc(-n2cnnc2-c2c(-c3cc(Cl)ccc3Cl)nc3ccccn23)cc1 [Compound 513, 2-(2,5-Dichlorophenyl)-3-(4-(4-(trifluoromethyl)phenyl)-4H-1,2,4-triazol-3-yl)imidazo[1,2-a]pyridine]	100
Clc1ccc(Cl)c(-c2nc3ccccn3c2-c2nncn2-c2ccc3[nH]ncc3c2)c1 [Compound 514, 5-(3-(2-(2,5-Dichlorophenyl)imidazo[1,2-a]pyridin-3-yl)-4H-1,2,4-triazol-4-yl)-1H-indazole]	93.3
N#Cc1ccc(-n2cnnc2-c2c(-c3cc(Cl)ccc3Cl)nc3ccccn23)cc1 [Compound 515, 4-(3-(2-(2,5-Dichlorophenyl)imidazo[1,2-a]pyridin-3-yl)-4H-1,2,4-triazol-4-yl)benzonitrile]	100
Clc1ccc(Cl)c(-c2nc3ccccn3c2-c2nncn2-c2ccc3cn[nH]c3c2)c1 [Compound 516, 6-(3-(2-(2,5-Dichlorophenyl)imidazo[1,2-a]pyridin-3-yl)-4H-1,2,4-triazol-4-yl)-1H-indazole]	99.8
Clc1ccc(Cl)c(-c2nc3ccccn3c2-c2nncn2-c2ccc3scnc3c2)c1 [Compound 518, 5-(3-(2-(2,5-Dichlorophenyl)imidazo[1,2-a]pyridin-3-yl)-4H-1,2,4-triazol-4-yl)benzo[d]thiazole]	98.4
Cn1ncc2cc(-n3cnnc3-c3c(-c4cc(Cl)ccc4Cl)nc4ccccn34)ccc21 [Compound 519, 5-(3-(2-(2,5-Dichlorophenyl)imidazo[1,2-a]pyridin-3-yl)-4H-1,2,4-triazol-4-yl)-1-methyl-1H-indazole]	99.9
Cn1ncc2ccc(-n3cnnc3-c3c(-c4cc(Cl)ccc4Cl)nc4ccccn34)cc21 [Compound 520, 6-(3-(2-(2,5-Dichlorophenyl)imidazo[1,2-a]pyridin-3-yl)-4H-1,2,4-triazol-4-yl)-1-methyl-1H-indazole]	95.7
Cn1cnc2cc(-n3cnnc3-c3c(-c4cc(Cl)ccc4Cl)nc4ccccn34)ccc21 [Compound 521, 5-(3-(2-(2,5-Dichlorophenyl)imidazo[1,2-a]pyridin-3-yl)-4H-1,2,4-triazol-4-yl)-1-methyl-1H-benzo[d]imidazole]	81.6

Structure (SMILES)	activation at 1.1 µM [%]
Clc1ccccc1-c1nc2ccccn2c1-c1nncn1-c1ccc2cn[nH]c2c1 [Compound 522, 6-(3-(2-(2-Chlorophenyl)imidazo[1,2-a]pyridin-3-yl)-4H-1,2,4-triazol-4-yl)-1H-indazole]	91.4
Clc1ccc(Cl)c(-c2nc3cccnn3c2-c2nncn2-c2ccc3cn[nH]c3c2)c1 [Compound 523, 3-(4-(1H-Indazol-6-yl)-4H-1,2,4-triazol-3-yl)-2-(2,5-dichlorophenyl)imidazo[1,2-b]pyridazine]	95.2
Fc1ccc(-c2nn3ccccc3c2-c2nncn2-c2ccc(Cl)cc2)cc1 [Compound 524, 3-(4-(4-Chlorophenyl)-4H-1,2,4-triazol-3-yl)-2-(4-fluorophenyl)pyrazolo[1,5-a]pyridine]	99.1
O=c1[nH]nc(-c2c(-c3cc(Cl)ccc3Cl)nc3ccccn23)n1-c1ccc(Cl)cc1 [Compound 525, 4-(4-Chlorophenyl)-3-(2-(2,5-dichlorophenyl)imidazo[1,2-a]pyridin-3-yl)-1H-1,2,4-triazol-5(4H)-one]	83.3
S=c1[nH]nc(-c2c(-c3cc(Cl)ccc3Cl)nc3ccccn23)n1-c1ccc(Cl)cc1 [Compound 526, 4-(4-Chlorophenyl)-3-(2-(2,5-dichlorophenyl)imidazo[1,2-a]pyridin-3-yl)-1H-1,2,4-triazole-5(4H)-thione]	98.9
COc1nnc(-c2c(-c3cc(Cl)ccc3Cl)nc3ccccn23)n1-c1ccc(Cl)cc1 [Compound 527, 3-(4-(4-Chlorophenyl)-5-methoxy-4H-1,2,4-triazol-3-yl)-2-(2,5-dichlorophenyl)imidazo[1,2-a]pyridine]	97.1
CSc1nnc(-c2c(-c3cc(Cl)ccc3Cl)nc3ccccn23)n1-c1ccc(Cl)cc1 [Compound 528, 3-(4-(4-Chlorophenyl)-5-(methylthio)-4H-1,2,4-triazol-3-yl)-2-(2,5-dichlorophenyl)imidazo[1,2-a]pyridine]	86.8
CCc1ccc(-n2cnnc2-c2c(-c3cc(Cl)ccc3Cl)nc3ccccn23)cc1 [Compound 529, 2-(2,5-Dichlorophenyl)-3-(4-(4-ethylphenyl)-4H-1,2,4-triazol-3-yl)imidazo[1,2-a]pyridine]	99.6
CC(C)c1ccc(-n2cnnc2-c2c(-c3cc(Cl)ccc3Cl)nc3ccccn23)cc1 [Compound 530, 2-(2,5-Dichlorophenyl)-3-(4-(4-isopropylphenyl)-4H-1,2,4-triazol-3-yl)imidazo[1,2-a]pyridine]	98.9
Clc1ccc(Cl)c(-c2nc3ccccn3c2-c2nncn2-c2ccc(-c3ccccc3)cc2)c1 [Compound 531, 3-(4-([1,1′-Biphenyl]-4-yl)-4H-1,2,4-triazol-3-yl)-2-(2,5-dichlorophenyl)imidazo[1,2-a]pyridine]	88.8
Fc1ccc(-n2cnnc2-c2c(-c3cc(Cl)ccc3Cl)nc3ccccn23)cc1 [Compound 533, 2-(2,5-Dichlorophenyl)-3-(4-(4-fluorophenyl)-4H-1,2,4-triazol-3-yl)imidazo[1,2-a]pyridine]	100
Fc1ccccc1-n1cnnc1-c1c(-c2cc(Cl)ccc2Cl)nc2ccccn12 [Compound 534, 2-(2,5-Dichlorophenyl)-3-(4-(2-fluorophenyl)-4H-1,2,4-triazol-3-yl)imidazo[1,2-a]pyridine]	96.8
Fc1cccc(-n2cnnc2-c2c(-c3cc(Cl)ccc3Cl)nc3ccccn23)c1 [Compound 535, 2-(2,5-Dichlorophenyl)-3-(4-(3-fluorophenyl)-4H-1,2,4-triazol-3-yl)imidazo[1,2-a]pyridine]	99.6
Cn1ccc2cc(-n3cnnc3-c3c(-c4cc(Cl)ccc4Cl)nc4ccccn34)ccc21 [Compound 536, 2-(2,5-Dichlorophenyl)-3-(4-(1-methyl-1H-indol-5-yl)-4H-1,2,4-triazol-3-yl)imidazo[1,2-a]pyridine]	100
Cc1ccc(-n2cnnc2-c2c(-c3cc(Cl)ccc3Cl)nc3ccccn23)cn1 [Compound 540, 2-(2,5-Dichlorophenyl)-3-(4-(6-methylpyridin-3-yl)-4H-1,2,4-triazol-3-yl)imidazo[1,2-a]pyridine]	96
Clc1ccc(Cl)c(-c2nc3ccccn3c2-c2nncn2-c2ccc3ncccc3c2)c1 [Compound 541, 6-(3-(2-(2,5-Dichlorophenyl)imidazo[1,2-a]pyridin-3-yl)-4H-1,2,4-triazol-4-yl)quinoline]	93.9
